Experimental findings from patent publication US7825112B2, “2-carbamide-4-phenylthiazole derivatives, preparation thereof and therapeutic use thereof” (sanofi-aventis, priority 2006, dated 2010) are described below.

One data set deals with T1, human CCR2b receptor (Homo sapiens, UniProt P41597).
T1 construct: host or cells: CHO-K1
T1 sequence (P41597 1-360 isoform P41597-2): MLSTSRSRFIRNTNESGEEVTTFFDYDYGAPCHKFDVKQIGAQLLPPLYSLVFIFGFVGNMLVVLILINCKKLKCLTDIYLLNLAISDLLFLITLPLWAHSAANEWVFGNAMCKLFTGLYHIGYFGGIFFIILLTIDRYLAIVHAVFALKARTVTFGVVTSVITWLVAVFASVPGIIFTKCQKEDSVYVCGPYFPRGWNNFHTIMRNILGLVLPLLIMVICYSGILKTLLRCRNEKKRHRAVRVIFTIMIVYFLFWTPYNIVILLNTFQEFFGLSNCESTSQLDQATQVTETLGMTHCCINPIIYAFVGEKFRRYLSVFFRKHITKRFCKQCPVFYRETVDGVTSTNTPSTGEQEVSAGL
The data set can be described thus: [125I]-MCP-1 binding displacement on CHO-K1-CCR2B cells (inhibiting activity on cells expressing the human CCR2b receptor). The following applies: iodinated MCP-1 0.1 nM, 1 h 30 minutes at ambient temperature, read-out: Cl50 (concentration which inhibited 50% of the activity of the CCR2b receptor). Here is the method:
The inhibiting activity of the compounds according to the invention was measured on cells expressing the human CCR2b receptor. The concentration of natural hMCP-1 agonist which inhibited 50% (Cl50) of the activity of the CCR2b receptor was 0.57 nM.
The following are brought into contact for 1 h 30 minutes at ambient temperature, in Millipore GF/B filter plates (ref. MAFBNOB 10 or 50): 50 μl of compound at 3×10^−5 M in the reaction buffer or cold MCP-1 range ((R & D Systems). Recombinant human MCP-1) (final concentration of compound: 10^−5 M), and 50 μl of iodinated MCP-1 ([^125 l]-MCP-1 human recombinant Bolton+Hunter labelled (Amersham)) at 0.3 nM in distilled water (final concentration of iodinated MCP-1: 0.1 nM), and 50 μl of CHO-K1-CCR2B cells (obtained from Euroscreen Brussels, Belgium) at 6×10^5 cells/ml (final concentration in the reaction buffer: […]). The filters were saturated beforehand with 100 μl of PEI at a final concentration of 0.0125% in PBS, for 72 h at 4° C., and the PEI was removed by filtration. The content of the wells was filtered and washed twice with the reaction buffer, and the filters were left to dry overnight. The following day, 20 μl/well of “Wallac Optiphase Super Mix” scintillant were dispensed. The filters were impregnated for 1 to 2 h and then counted with Trilux Iodine 125 for 1 min.
Reaction buffer=PBS buffer, […], 1 mM CaCl2, 5 mM MgCl2, 0.5% fatty acid-free BSA, adjusted to pH 7.4.

Broadly, the melting point is the temperature, or range, at which the solid turns liquid. The molecule `COc1ccc(C2CCCCC2)cc1-c1csc(NC(=O)N2CCN(C3CCOCC3)CC2)n1` [Compound No 11, 4-(tetrahydropyran-4-yl)piperazine-1-carboxylic acid [4-(5-cyclohexyl-2-methoxyphenyl)thiazol-2-yl]amide] had a melting point of 226 °C. Also, the IC50 on human CCR2b receptor was 20 nM. The matching figures for `COc1ccc(C2CCCCC2)cc1-c1csc(NC(=O)N2CCN(C[C@@H]3CCCN(CCCCC(=O)O)C3)CC2)n1` [compound 9, 5-((R)-3-{4-[4-(5-cyclohexyl-2-methoxyphenyl)thiazol-2-ylcarbamoyl]piperazin-1-ylmethyl}piperidin-1-yl)pentanoic acid]: 153 °C and 4 nM. In the case of `COc1ccc(C2CCCCC2)cc1-c1csc(NC(=O)N2CCN(C3CCCCC3)CC2)n1` [compound 10, 4-cyclohexylpiperazine-1-carboxylic acid [4-(5-cyclohexyl-2-methoxyphenyl)thiazol-2-yl]amide], the melting point was 110 °C. Also, the IC50 on human CCR2b receptor came to 53 nM.

Regarding `COc1ccc(C2CCCCC2)cc1-c1csc(NC(=O)N2CCN(C(=O)[C@@H]3CCCN(C4CC4)C3)CC2)n1` [compound 22, 4-((R)-1-cyclopropylpiperidine-3-carbonyl)piperazine-1-carboxylic acid [4-(5-cyclohexyl-2-methoxyphenyl)thiazol-2-yl]amide], the IC50 on human CCR2b receptor stood at 4 nM. As for `CCCCc1ccc(OCC)c(-c2csc(NC(=O)N3CCN(C[C@@H]4CCCN(C5CC5)C4)CC3)n2)c1` [compound 23, 4-((S)-1-cyclopropylpiperidin-3-ylmethyl)piperazine-1-carboxylic acid [4-(5-butyl-2-ethoxyphenyl)thiazol-2-yl]amide], the melting point was 86 °C. Further, the IC50 on human CCR2b receptor came out at 8 nM.

For `COc1ccc(C2CCCCC2)cc1-c1csc(NC(=O)N2CCN(C[C@@H]3CCCN(S(=O)(=O)C4CC4)C3)CC2)n1` [compound 29, 4-((S)-1-cyclopropanesulphonylpiperidin-3-ylmethyl)piperazine-1-carboxylic acid [4-(5-cyclohexyl-2-methoxyphenyl)thiazol-2-yl]amide], the melting point was found to be 114 °C. Besides, the IC50 at human CCR2b receptor amounted to 50 nM. On to `COc1ccc(C2CCCCC2)cc1-c1csc(NC(=O)N2CCN(C3CCS(=O)(=O)CC3)CC2)n1` [compound 33, 4-(1,1-dioxohexahydro-1λ^6-thiopyran-4-yl)piperazine-1-carboxylic acid [4-(5-cyclohexyl-2-methoxyphenyl)thiazol-2-yl]amide], for which the melting point was 204 °C. Besides, at human CCR2b receptor, the IC50 stood at 20 nM.

`COc1ccc(C2CCCCC2)cc1-c1csc(NC(=O)N2CCN(CC3CCOC(C)(C)C3)CC2)n1` (stereo not shown) [compound 40, 4-(2,2-dimethyltetrahydropyran-4-ylmethyl)piperazine-1-carboxylic acid [4-(5-cyclohexyl-2-methoxyphenyl)thiazol-2-yl]amide]: the melting point was 98 °C. Besides, at human CCR2b receptor, the IC50 was found to be 82 nM. Take `COc1ccc(C2CCCCC2)cc1-c1csc(NC(=O)N2CCN(C3CCSCC3)CC2)n1` [compound 41, 4-(tetrahydrothiopyran-4-yl)piperazine-1-carboxylic acid [4-(5-cyclohexyl-2-methoxyphenyl)thiazol-2-yl]amide]: the melting point came to 118 °C. For the same molecule, on human CCR2b receptor, the IC50 came out at 39 nM. With `COc1ccc(C2CCCCC2)cc1-c1csc(NC(=O)N2CCN(CC3CCCCN3S(=O)(=O)c3cnn(C)c3C)CC2)n1` (stereo not shown) [compound 45, 4-[1-(1,5-dimethyl-1H-pyrazole-4-sulphonyl)piperidin-2-ylmethyl]piperazine-1-carboxylic acid [4-(5-cyclohexyl-2-methoxyphenyl)thiazol-2-yl]amide], the IC50 on human CCR2b receptor turned out to be 73 nM. Consider “hMCP-1: human monocyte chemotactic protein, CC chemokine group, natural agonist of the CCR2b receptor [reference compound]”, for which the IC50 with human CCR2b receptor amounted to 0.57 nM.
